Data taken from PMC12734371, “Synthesis, Anti-Tumour, and Antibacterial Activities of Monocarbonyl Curcumin Analogues of Piperidones” (International Journal of Molecular Sciences, 2025).
In brackets after ≈: the same amount, converted by molar mass. Entries after “also recorded” stand apart in the source; their conditions may differ. Read-outs that look alike come from different tables or passages of the source.

Experiments:
HepG2 cells = test: MTT assay, inhibition of tumour cell growth; type: cell-based, human; conditions: mean ± s, n = 3
Procedure: (§1) The tumour cell suspension in logarithmic growth phase, containing about 5 × 10^3 cells, was taken and seeded onto a 96-well plate and gently shaken to disperse the cells evenly at the bottom of the plate. The cells were incubated in a constant temperature (37 °C) incubator for 24 h. The old medium was discarded, and 100 μL of the prepared working solution of piperidinone monocarbonyl curcumin analogues at different concentrations was added, and the cells were incubated in a constant temperature incubator for 24 h. Blank medium wells, blank cell wells, and 0.9% DMSO (highest content) wells were set up, with 6 multi-well and 3 multi-plates for each concentration. The discarded old medium was absorbed, and 100 μL of 10% 5 mg/mL MTT working solution was added to each well (operated away from light) and placed in a cell incubator for further incubation for 4 h. The old medium was discarded, and 100 μL of DMSO was added to each well and shaken in an air shaker at 100 RPM for 10 min. The absorbance of the OD value was measured at 490 nm by a multifunctional microplate analyzer. According to Formula (1), the inhibition rates of different piperidones monocarbonyl curcumin analograms on 4 tumour cells were calculated, and IC50 was calculated by GraphPad Prism 8.0:Inhibition rate (%) = (OD blank cell group − OD administration group)/OD blank cell group(1)

Hela cells = test: MTT assay, inhibition of tumour cell growth; type: cell-based, human; conditions: 24 h, mean ± s, n = 3
Procedure: as §1

MCF-7 cells = test: MTT assay, inhibition of tumour cell growth; type: cell-based, human; conditions: mean ± s, n = 3
Procedure: as §1

A549 cells [1] = test: MTT assay, inhibition of tumour cell growth; type: cell-based, human; conditions: mean ± s, n = 3
Procedure: as §1

MRSA [2] = test: AGAR plate zone of inhibition test (filter paper); type: cell-based, methicillin-resistant Staphylococcus aureus; conditions: 160 μmol/L, 6 mm filter paper, 16 h, mean ± s; for zone of inhibition at 160 µM: Staphylococcus aureus, n = 3, read-out: Diameter of Bacteriostatic Zone
Procedure: Based on the results of previous experiments, the promising compounds were selected, and the size of the inhibition zone at 160 μmol/L was determined. The specific operation was as follows: The nutrient agar medium, after high temperature sterilization, was poured into about 20 mL per 9 cm plate in an ultra-clean bench and naturally cooled and solidified. Each plate was evenly coated with 100 μL MRSA bacterial suspension. The filter paper of 6 mm diameter soaked in the drug solution was dried by flame evaporation, and four tablets were placed in parallel into each plate, cultured in a constant temperature incubator at 37 °C for 16 h, and the size of the inhibition zone was measured.

[3] = tested on: ERK (extracellular regulated protein kinases); test: Western blot, ERK level in A549 cells; type: cell-based, human; conditions: 10, 5, 2.5 μmol/L, 24 h
Procedure: A549 cells in logarithmic growth phase were seeded in 6-well plates at 1 × 10^6 cells/mL per well. The cells were cultured overnight in an incubator. Different concentrations of drug-containing medium of 2,5-2Cl, 2Br-5Cl, 2-Cl, 2-F, benzaldehyde ([…]), curcumin (20 μmol/L), and cisplatin (30 μmol/L) were added, and the blank control […] The RIPA cell lysis buffer containing protease inhibitors was added to the Petri dish to collect the proteins of each experimental group, and the supernatant was collected as a protein sample after ultrasonic centrifugation. Protein quantification was performed by the BCA method. A total of 20 μg protein was separated by 10% SDS-PAGE, and then the protein was transferred to a PVDF membrane. The membrane was blocked with 5% skim milk for 1 h, and the corresponding primary antibody was incubated at 4 °C overnight. After washing the membrane three times with TBST, the bands were incubated with the corresponding secondary antibodies at room temperature for 1 h. After cleaning the membrane with TBST 3 times, the darkroom was developed with ECL luminescence. Using GAPDH as an internal reference, the protein bands were analyzed by ImageJ 1.8.0.

A549 cells [4] = test: Cell wound scratch assay (migration); type: cell-based, human; conditions: 6 h; high, medium, and low concentrations
Procedure: A549 cells in logarithmic phase were digested with 0.25% trypsin and blown to single cell suspension with a dropper. The cell density was adjusted to 5 × 10^5 cells/mL. The cells were inoculated on 6-well plates, 2 mL per well, and cultured in a cell incubator at 37 °C, 5% CO2, and saturated humidity for 24 h until the gaps were basically fused. A 10 μL micro pipette tip was used to scratch vertically in a 6-well plate. After washing with PBS solution 3 times, the drug-containing medium was added, 2 mL per well, and three wells were set in each group. The culture plates were placed in a 5% CO2 incubator at 37 °C for 6 h and 24 h and observed and photographed with an inverted fluorescence microscope. The images were obtained by NIS Elements Viewer 4.2.0, and the scratch area and width were calculated. The cell migration rate was calculated by Formula (2):[Cell migration rate (%) = (0 h scratch area − scratch area at different times)/0 h scratch area × 100%](2)

A549 cells [5] = test: Cell morphology by inverted microscope; type: cell-based, human; conditions: 5 μmol/L, 24 h
Procedure: The cells were inoculated in a 6-well plate, and about 1 × 10^6 A549 cells in the logarithmic growth phase were inoculated in each well. After the cells were cultured in a constant temperature incubator for 24 h, the old medium was discarded, and five kinds of piperidone monocarbonyl curcumin analogue solution (5, 10, and 20 μmol/L), curcumin (10, 20, and 40 μmol/L), and 0.9% DMSO were added as the blank control group for 24 h, and then the cell morphology was observed by inverted microscope (200×).

L02 cells = test: MTT assay, toxicity to human normal liver cells; type: cell-based; conditions: mean ± s, n = 3
Procedure: The cells were passaged to the fourth generation of L02 cells, and the cell suspension containing about 5 × 10^3 cells was added to each well of the 96-well plate and cultured in a cell culture incubator for 24 h. The old medium was discarded, and different concentrations of liquid medicine (6 porous and 3 plates for each concentration) were added and incubated for 24 h. The old medium was discarded, 10% of 5 mg/mL MTT working solution was added in the dark, and the cells were incubated in a cell incubator for 4 h. The old medium was discarded, 100 μL DMSO was added to each well, and 100 RPM was oscillated on an air shaker for 10 min. The OD value was measured at 490 nm with a multifunctional microplate reader. According to the OD value, the inhibition rate of different piperidone monocarbonyl curcumin analogues on L02 cells was calculated according to Formula (1), and IC50 was calculated by Graph Pad Prism 8.0.

MRSA [6] = test: Broth microdilution inhibition test and MIC; type: cell-based, methicillin-resistant Staphylococcus aureus; conditions: for MIC: broth microdilution
Procedure: Then, the MIC values of 100% compounds at the maximum inhibitory concentration were obtained by the broth microdilution method. The specific experiments are as follows: First, in the 96-well plate, add 100 μL of compound working solution from column 2 to column 8, with concentrations decreasing from high to low, repeating each concentration 6 times. Add 100 μL of NB nutrient broth containing 1% DMSO to column 9, and 100 μL of blank NB nutrient broth to columns 10 and 11. Then, add 10 μL of bacterial suspension to each well from columns 2 to 10. Place the 96-well plate in a 37 °C incubator for 16 h at 100 rpm and measure the absorbance at 600 nm by microplate reader. Columns 2 to 9 represent the drug treatment group, column 10 is the negative control group, and column 11 is the blank control group. The minimum concentration that inhibits bacterial growth is the MIC value of the compound: Bacterial inhibition rate (%) = (OD administration − OD control)/(ODcontrol − OD blank) (3)

MRSA [7] = test: Time inhibition curve against MRSA; type: cell-based, methicillin-resistant Staphylococcus aureus; conditions: 160 μmol/L and 80 μmol/L
Procedure: Based on the results of previous experiments, the promising compounds were selected. According to the administration method under ‘2.3.2’, the absorbance values of the promising compounds at 600 nm at different concentrations of bacteria at 4, 14, 18, and 24 h were measured by a microplate reader, and the inhibitory effect of the compounds on MRSA at different time points was calculated. The time inhibition curve of the compound against MRSA was made with the abscissa as the time and the ordinate as the bacterial inhibition rate.

A549 cells [8] = test: Flow cytometry apoptosis (Annexin V/PI); type: cell-based, human; conditions: 24 h
Procedure: The A549 cells in logarithmic growth phase were inoculated in 6-well plates at 1 × 10^6 cells. After resting in the incubator for 24 h, the cells were treated with different concentrations of drugs. The blank control group was added with the medium with the highest concentration of DMSO. After 24 h of culture, cells were collected, washed with PBS, transferred to a flow tube, and resuspended with 100 μL of 1 × Annexin V conjugate. Add 4 μL YF4/88-Annexin N and 5 μL PI working solution. The cells were incubated in the dark at room temperature for 10 min, transferred to a flow cytometer tube, added with 200 μL of 1 × Annexin V conjugate, and immediately detected by flow cytometry.

Row | Compound | IC50 (HepG2 cells; 24 h) [µM] | IC50 (Hela cells) [µM] | IC50 (MCF-7 cells; 24 h) [µM] | IC50 (A549 cells [1]; 24 h) [µM] | other results
1 | 3,5-Bis(2-bromo-benzyl)-4-piperidone | 7.03 ± 3.24 | 12.3 ± 2.67 | > 40 | 16.6 ± 1.84 | 
2 | 3,5-Bis(3,5-dibromo-benzyl)-4-piperidone [3,5-2Br] | > 40 | 12.8 ± 3.18 | > 40 | > 40 | 
3 | 3,5-Bis(4-bromo-benzyl)-4-piperidinone | 7.15 ± 4.62 | > 40 | 19.7 ± 3.68 | 15.5 ± 2.35 | 
4 | O=C1C(=Cc2ccccc2Cl)CNCC1=Cc1ccccc1Cl [2-Cl] | 8.53 ± 2.61 | 6.61 ± 1.93 | 5.7 ± 1.21 | 4.81 ± 1.69 | Diameter of Bacteriostatic Zone (MRSA [2]; n = 3): 14.67 ± 0.58 mm; ERK protein level vs control group [3]: significantly lower; Cell migration rate vs blank control (0.9% DMSO) (A549 cells [4]): no statistical difference; Cell morphology (A549 cells [5]): most of the cells became round and loose; IC50 (L02 cells; 24 h): 70.5 ± 1.85 µM; Inhibition rate of MRSA (MRSA [6]; 60 μmol/L): less than 100%; Inhibition rate of MRSA (MRSA [6]; 70 μmol/L): 100%; Inhibition of MRSA (MRSA [6]; 160 μmol/L): 100%; MIC (MRSA [6]; MRSA): 70 µM (≈ 24.1 µg/mL); Inhibition rate of MRSA over time (MRSA [7]; 18 h): 100%; Inhibition rate of MRSA over time (MRSA [7]; 24 h): 87.02%
5 | O=C1C(=Cc2ccc(Cl)cc2Br)CNCC1=Cc1ccc(Cl)cc1Br [2Br-4Cl] | 27.3 ± 2.64 | 23.4 ± 3.34 | > 40 | 18.2 ± 3.15 | 
6 | O=C1C(=Cc2ccc(F)cc2Br)CNCC1=Cc1ccc(F)cc1Br [2Br-4F] | 18.3 ± 4.38 | > 40 | > 40 | 21.8 ± 3.68 | 
7 | O=C1C(=Cc2cc(Cl)ccc2Br)CNCC1=Cc1cc(Cl)ccc1Br [2Br-5Cl] | 8.42 ± 1.99 | 6.24 ± 2.46 | 6.36 ± 1.28 | 4.75 ± 1.51 | ERK protein level vs control group [3]: significantly lower; also recorded: most obvious; Cell migration rate vs blank control (0.9% DMSO) (A549 cells [4]): no statistical difference; Cell morphology (A549 cells [5]): most of the cells became round and loose; IC50 (L02 cells; 24 h): 58.2 ± 2.79 µM
8 | O=C1C(=Cc2ccc(Cl)c(Cl)c2)CNCC1=Cc1ccc(Cl)c(Cl)c1 [3,4-2Cl, 3,5-Bis(3,4-dichlorobenzylidene)-4-piperidone] |  |  |  |  | IC50 (HepG2 cells; Homo sapiens, HepG2, 24 h): > 40 µM; IC50 (Hela cells; Homo sapiens, HeLa): > 40 µM; IC50 (MCF-7 cells; Homo sapiens, MCF7, 24 h): > 40 µM; IC50 (A549 cells [1]; Homo sapiens, A549, 24 h): 11.9 ± 4.64 µM
9 | O=C1C(=Cc2cccc(Br)c2)CNCC1=Cc1cccc(Br)c1 [3-Br] | 18.3 ± 3.44 | > 40 | 22.5 ± 3.55 | > 40 | 
10 | O=C1C(=Cc2ccc(Br)cc2F)CNCC1=Cc1ccc(Br)cc1F [4Br-2F] | 16.4 ± 1.97 | 18.7 ± 3.66 | 28.5 ± 2.91 | 20.2 ± 4.15 | 
11 | O=C1C(=Cc2cc(Br)ccc2Cl)CNCC1=Cc1cc(Br)ccc1Cl [5Br-2Cl] | 29.3 ± 2.94 | > 40 | > 40 | 14.2 ± 3.85 | 
12 | N.N.[Cl][Pt][Cl] [Cisplatin solution, reference compound] | 27.7 ± 3.26 | 59.4 ± 1.7 | 55.2 ± 4.09 | 41.2 ± 3.49 | Proportion of normal cells (flow cytometry) (A549 cells [8]; 30 μmol/L): 86.27%; IC50 (L02 cells; 24 h): 48.4 ± 3.83 µM
13 | COc1cc(/C=C/C(=O)CC(=O)/C=C/c2ccc(O)c(OC)c2)ccc1O [Curcumin] |  |  |  |  | Proportion of normal cells (flow cytometry) (A549 cells [8]; 20 μmol/L): 84.27%; IC50 (L02 cells; Homo sapiens, L02, 24 h): 30.4 ± 1.04 µM; IC50 (HepG2 cells; Homo sapiens, HepG2, 24 h): 17.6 ± 3.43 µM; IC50 (Hela cells; Homo sapiens, HeLa): 29.2 ± 2.57 µM; IC50 (MCF-7 cells; Homo sapiens, MCF7, 24 h): 39.2 ± 2.81 µM; IC50 (A549 cells [1]; Homo sapiens, A549, 24 h): 33.5 ± 3.83 µM
14 | CC1(C)S[C@@H]2[C@H](NC(=O)Cc3ccccc3)C(=O)N2[C@H]1C(=O)O [Penicillin] |  |  |  |  | zone of inhibition at 160 µM (MRSA [2]): 8.67 ± 0.58 mm
15 | NC[C@H]1O[C@H](O[C@H]2[C@H](O)[C@@H](O[C@H]3O[C@H](CO)[C@@H](O)[C@H](N)[C@H]3O)[C@H](N)C[C@@H]2N)[C@H](N)C[C@@H]1O [Tobramycin, reference compound] |  |  |  |  | zone of inhibition at 160 µM (MRSA [2]): 10.7 ± 0.58 mm; inhibition at 70 µM (MRSA [6]; Staphylococcus aureus, MRSA, 70 μmol/L, read-out: Inhibition rate of MRSA): < 100%; inhibition at 80 µM (MRSA [6]; Staphylococcus aureus, MRSA, 80 μmol/L, read-out: Inhibition rate of MRSA): 100%; inhibition at 160 µM (MRSA [6]; Staphylococcus aureus, MRSA, 160 μmol/L): 100%; MIC (MRSA [6]; Staphylococcus aureus, MRSA, read-out: MIC): 80 µM (≈ 37.4 µg/mL)
